For orientation: Ki means the dissociation constant of the complex between target and ligand, obtained from inhibition or displacement. The term EC50 denotes the concentration that produces a half-maximal response.

The structures appear in SMILES notation.

Assay [1] addresses T1, RXRγ (UniProt P28705).
T1 sequence (P28705 1-463): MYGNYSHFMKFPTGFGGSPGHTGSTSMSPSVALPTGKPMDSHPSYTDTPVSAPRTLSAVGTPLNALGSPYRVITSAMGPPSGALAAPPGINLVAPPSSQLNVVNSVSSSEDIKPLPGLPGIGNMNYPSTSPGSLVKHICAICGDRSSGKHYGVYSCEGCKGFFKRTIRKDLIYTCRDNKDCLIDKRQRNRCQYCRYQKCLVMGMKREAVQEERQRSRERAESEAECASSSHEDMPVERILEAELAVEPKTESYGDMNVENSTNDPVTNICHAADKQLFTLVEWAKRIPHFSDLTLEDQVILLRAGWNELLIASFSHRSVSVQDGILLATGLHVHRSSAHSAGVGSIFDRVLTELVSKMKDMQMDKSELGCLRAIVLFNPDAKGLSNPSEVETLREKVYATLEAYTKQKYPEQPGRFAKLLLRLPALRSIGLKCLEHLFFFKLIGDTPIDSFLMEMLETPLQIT
In words: ligand binding assay, RXRγ. Particulars: read-out: RXR Bind Ki (nM) γ.
From the text: (§2) The results obtained in this assay are expressed in EC50 numbers, as they are also in the chimeric receptor transactivation assay. The results of ligand binding assay are expressed in Kd numbers.
(§3) Particularly, the transactivation data pertaining to RAR receptors were obtained in the chimeric assay, and the data pertaining to transactivation of RXR receptors were obtained in the holoreceptor transactivation assay.

Assay [2] has as its target T1, RXRγ. In words: holoreceptor transactivation assay, RXRγ. It is filed as cell-based. Conditions: NA = Not Active, read-out: RXR Trans. EC50 (nM) γ.
From the text: (§4) The results obtained in this assay are expressed in EC50 numbers, as they are also in the chimeric receptor transactivation assay.
Assay [3] concerns the target T2, RXRβ (UniProt P28704).
T2 sequence (P28704 1-520): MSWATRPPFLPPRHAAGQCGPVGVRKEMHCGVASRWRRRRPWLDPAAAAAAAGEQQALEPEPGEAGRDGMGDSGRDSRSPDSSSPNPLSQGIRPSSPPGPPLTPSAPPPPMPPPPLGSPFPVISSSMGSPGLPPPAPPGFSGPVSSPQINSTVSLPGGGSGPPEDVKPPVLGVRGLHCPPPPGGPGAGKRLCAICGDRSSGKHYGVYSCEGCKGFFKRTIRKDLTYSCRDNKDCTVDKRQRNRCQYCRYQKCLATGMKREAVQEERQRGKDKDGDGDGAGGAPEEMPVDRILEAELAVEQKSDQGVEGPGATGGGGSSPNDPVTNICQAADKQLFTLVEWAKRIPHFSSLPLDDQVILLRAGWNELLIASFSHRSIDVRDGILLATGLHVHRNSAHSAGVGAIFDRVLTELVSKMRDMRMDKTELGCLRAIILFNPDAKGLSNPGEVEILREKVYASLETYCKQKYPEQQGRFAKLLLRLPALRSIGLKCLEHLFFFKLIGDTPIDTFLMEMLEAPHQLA
In words: ligand binding assay, RXRβ. Conditions: read-out: RXR Bind Ki (nM) β.
From the text: as §2, §3

The target of assay [4] is T2, RXRβ. In words: holoreceptor transactivation assay, RXRβ. It is filed as cell-based. Particulars: NA = Not Active, read-out: RXR Trans. EC50 (nM) β.
From the text: as §4
For another assay, the target named is RARβ (Homo sapiens, UniProt P10826). In words: chimeric receptor transactivation assay, RARβ. It is filed as cell-based. Conditions: NA = Not Active, read-out: RAR Trans. EC50 (nM) β. The source says: (§1) The specification of U.S. Pat. No. 5,455,265 is hereby expressly incorporated by reference.
Sequence of RARβ (P19793 whole entry): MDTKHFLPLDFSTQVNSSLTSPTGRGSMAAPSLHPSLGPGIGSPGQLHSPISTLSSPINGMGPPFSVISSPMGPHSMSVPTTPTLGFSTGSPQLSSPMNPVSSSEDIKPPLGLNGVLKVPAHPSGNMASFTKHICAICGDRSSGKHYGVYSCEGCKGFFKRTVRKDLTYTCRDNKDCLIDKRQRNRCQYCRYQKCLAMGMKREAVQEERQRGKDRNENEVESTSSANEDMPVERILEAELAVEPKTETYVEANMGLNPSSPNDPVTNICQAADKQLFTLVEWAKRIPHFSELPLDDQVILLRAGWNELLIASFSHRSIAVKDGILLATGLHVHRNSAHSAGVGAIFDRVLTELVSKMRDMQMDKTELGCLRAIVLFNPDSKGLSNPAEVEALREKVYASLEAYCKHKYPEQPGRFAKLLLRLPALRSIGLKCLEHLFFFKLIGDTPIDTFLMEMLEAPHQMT
Sequence of RARβ (P10826 154-455): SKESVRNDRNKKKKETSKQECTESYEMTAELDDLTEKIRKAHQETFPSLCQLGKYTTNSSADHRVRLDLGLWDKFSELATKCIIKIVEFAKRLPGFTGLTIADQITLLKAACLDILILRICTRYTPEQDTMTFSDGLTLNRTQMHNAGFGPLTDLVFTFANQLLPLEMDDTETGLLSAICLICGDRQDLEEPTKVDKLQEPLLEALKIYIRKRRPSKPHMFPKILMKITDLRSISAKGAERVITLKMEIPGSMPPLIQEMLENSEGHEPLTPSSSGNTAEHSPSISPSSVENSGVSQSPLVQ
The next assay deals with RARγ (Homo sapiens, UniProt P13631). In words: chimeric receptor transactivation assay, RARγ. Conditions: NA = Not Active, read-out: RAR Trans. EC50 (nM) γ. Type of assay: cell-based.
Sequence of RARγ (P13631 whole entry): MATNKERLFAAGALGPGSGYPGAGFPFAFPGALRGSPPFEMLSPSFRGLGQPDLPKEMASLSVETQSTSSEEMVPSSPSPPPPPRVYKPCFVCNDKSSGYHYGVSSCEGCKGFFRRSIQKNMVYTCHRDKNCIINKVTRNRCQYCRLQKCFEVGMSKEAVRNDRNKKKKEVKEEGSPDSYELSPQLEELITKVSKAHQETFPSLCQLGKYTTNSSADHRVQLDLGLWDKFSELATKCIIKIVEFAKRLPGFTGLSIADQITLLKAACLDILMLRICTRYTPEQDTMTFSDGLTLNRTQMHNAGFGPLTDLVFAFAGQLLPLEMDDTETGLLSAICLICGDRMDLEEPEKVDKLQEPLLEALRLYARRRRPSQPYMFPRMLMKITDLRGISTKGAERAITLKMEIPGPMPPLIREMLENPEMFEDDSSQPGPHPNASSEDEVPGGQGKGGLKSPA
Sequence of RARγ (P19793 whole entry, further chain): as the sequence (P19793 whole entry) above
From the text: as §1

Turning to `CC1=CCC(C)(C)c2cc(N(C)c3ccc(C(=O)O)cc3)c(C)cc21` [Compound 44, 4-[Methyl(3,5,8,8-tetramethyl-7,8-dihydronaphthalen-2-yl)amino]benzoic acid], the Ki on RXRγ [1] and on RXRβ [3] was over 1000 nM in each case. Moreover, the EC50 at RXRγ [2] is over 1000 nM. In the case of `CCN(c1ccc(C(=O)O)cc1)c1cc2c(cc1C)C(C)=CCC2(C)C` [Compound 45, 4-[Ethyl(3,5,8,8-tetramethyl-7,8-dihydronaphthalen-2-yl)amino]benzoic acid], the inhibitory constant (Ki) on RXRγ [1] and at RXRβ [3] was over 1000 nM each time. Besides, the 50% effective concentration (EC50) on RXRγ [2] was over 1000 nM.

On to `CCCN(c1ccc(C(=O)O)cc1)c1cc2c(cc1C)C(C)=CCC2(C)C` [Compound 46, 4-[n-Propyl(3,5,8,8-tetramethyl-7,8-dihydronaphthalen-2-yl)amino]benzoic acid], for which the inhibition constant Ki at RXRγ [1] and at RXRβ [3] was over 10000 nM throughout. Besides, the 50% effective concentration (EC50) at RXRβ [4] was over 1000 nM.

Regarding `CC1=CCC(C)(C)c2cc(N(CC3CC3)c3ccc(C(=O)O)cc3)c(C)cc21` [Compound 47, 4-[Cyclopropylmethyl(3,5,8,8-tetramethyl-7,8-dihydronaphthalen-2-yl)amino]benzoic acid], the Ki at RXRβ [3] was over 1000 nM. For the compound `Cc1cc2c(cc1N(C)c1ccc(C(=O)O)cc1)C(C)(C)CC=C2C(C)C` [Compound 52, 4-[Methyl-(5-isopropyl-3,8,8-trimethyl-7,8-dihydronaphthalen-2-yl)amino]benzoic acid], at RXRβ [4], the EC50 was over 1000 nM. Take `CCN(c1ccc(C(=O)O)cc1)c1cc2c(cc1C)C(C(C)C)=CCC2(C)C` [Compound 53]: the half-maximal effective concentration (EC50) on RXRβ [4] was over 1000 nM. Also, the inhibition constant Ki on RXRβ [3] was over 1000 nM. In the case of `CCCN(c1ccc(C(=O)O)cc1)c1cc2c(cc1C)C(C(C)C)=CCC2(C)C` [Compound 54, 4-[n-Propyl-(5-isopropyl-3,8,8-trimethyl-7,8-dihydronaphthalen-2-yl)lamino]benzoic acid], the EC50 on RXRβ [4] is over 1000 nM. Also, the Ki at RXRβ [3] is over 1000 nM. `CC1=CCC(C)(C)c2cc(N(C)c3ccc(C(=O)O)cc3)ccc21` [Compound 67, 4-[Methyl-(5,8,8-trimethyl-7,8-dihydro-naphthalen-2-yl)-amino]-benzoic acid]: at RXRβ [3], the inhibition constant Ki is over 1000 nM.

`C=CCN(c1ccc(C(=O)O)cc1)c1ccc2c(c1)C(C(C)(C)C)=CCC2(C)C` [Compound 90, 4-[(8-t-Butyl-5,5-dimethyl-5,6-dihydronaphthalen-2-yl)(prop-2-en-yl)lamino]-benzoic acid]: the half-maximal effective concentration (EC50) on RARβ and at RARγ was over 1000 nM each time. Regarding `CCCCCCOc1cc2c(cc1N(CCC)c1ccc(C(=O)O)cc1)C(C)=CCC2(C)C` [Compound 145, 4-[(3-n-Hexyloxy-5,5,8-trimethyl-5,6-dihydronaphthalen-2-yl)-n-propylamino]benzoic acid], the concentration for a half-maximal effect (EC50) at RXRγ [2] was over 1000 nM. On to `CCCN(c1ccc(C(=O)O)cc1)c1cc2c(cc1OCc1ccccc1)C(C)(C)CC=C2C(C)C` [Compound 157], for which the concentration giving a half-maximal response (EC50) on RARβ is over 1000 nM.

(Values after patent US7026487B2, “Amines substituted with a dihydronaphthalenyl, chromenyl, or thiochromenyl group, a pyridyl group and an alkyl group, having retinoid-like biological activity” (Allergan, Inc., priority 2000, dated 2006).)
